From patent US10538532B2, “Hepatitis B antiviral agents” (ENANTA PHARMACEUTICALS, INC., priority 2016, dated 2020)

Assays:
[1] = Compound toxicity, ATPLite total ATP levels; assay type: cell-based; conditions: human, HepAD38 cells, three days after compound addition, concentration reducing total ATP levels by 50% relative to no drug controls
Experimental: Methods: HepAD38 cells are maintained as previously reported (Ladner et al, Antimicrob. Agents Chemother. 1997, […], 1715). Briefly, cells are passaged upon attaining confluency in DMEM/F12 media in the presence of 10% FBS, Penn/Strep, 250 μg/mL G418, and 1 ug/ml tetracycline. Novel compounds are screened by first washing cells three times with PBS to remove tetracycline, and plating in 96 well plates at 35,000 cells/well. Compounds dissolved in DMSO are then diluted 1:200 into wells containing cells. Five days after compound addition, material is harvested for analysis. For an extended 8 day analysis, cells are plated and treated as described above, but media and compound are refreshed on d2 and d5 post initial treatment.
Compound toxicity is evaluated by seeding cells at 15,000 cells/well and treating with compound as described above.

[2] = test system: HBV; assay: HepAD38 antiviral assay: reduction of viral product accumulation (virion DNA by qPCR, HBsAg or HBeAg by ELISA); assay type: cell-based, hepatitis B virus; conditions: Hepatitis B virus, HePAD38, 120 h, HepAD38 cells, five days after compound addition; concentration reducing viral product accumulation by 50% relative to no drug controls; read-out: HepAD38 EC50
How it was run: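 EC50 values represent 50% reduction of viral product accumulation in lysates or supernatants relative to untreated controls, with virion DNA read by qPCR and HBsAg/HBeAg by ELISA. Measurements followed 5 days of treatment, or 8 days with compound renewed on d2 and d5. Cells were tetracycline-depleted HepAD38 at 35,000/well, dosed with a 1:200 dilution of DMSO stocks.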

| Structure (SMILES) | CC50 at 3 days ([1]; class symbols) | EC50 [2] | CC50 at 3 days ([1]; numeric bounds) |
| --- | --- | --- | --- |
| O=C(Nc1cc(F)c(F)c(F)c1)c1ccc(Cl)c(S(=O)(=O)[C@H]2CC3CCC(C2)[C@]3(O)c2cccnc2)c1 [Example 331] | 10 to 25 µM | < 0.1 µM | – |
| O=C(Nc1cc(F)c(F)c(F)c1)c1ccc(Cl)c(S(=O)(=O)C2CC[C@H](O)[C@@H](O)CC2)c1 [Example 84] | > 25 µM | < 0.1 µM | – |
| O=C(Nc1cc(F)c(F)c(F)c1)c1ccc(Cl)c(S(=O)(=O)[C@H]2CC[C@H](O)CC2)c1 [Example 3] | > 25 µM | 0.1 to 0.4 µM | – |
| CCS(=O)(=O)NC[C@@]1(O)CC2CC[C@@H](C1)[C@H]2S(=O)(=O)c1cc(C(=O)Nc2cc(F)c(F)c(F)c2)ccc1Cl [Example 278] | > 25 µM | 0.1 to 0.4 µM | – |
| O=C(Nc1cc(F)c(F)c(F)c1)c1ccc(Cl)c(S(=O)(=O)[C@H]2C3CC[C@H]2C[C@H](Cn2ccnc2)C3)c1 [Example 312] | 10 to 25 µM | < 0.1 µM | – |
| NC(=O)OC[C@@H]1CC2CC[C@@H](C1)[C@H]2S(=O)(=O)c1cc(C(=O)Nc2cc(F)c(F)c(F)c2)ccc1Cl [Example 272] | – | < 0.1 µM | > 12.5 µM |
| CC(=O)NC[C@@]1(O)CC2CC[C@@H](C1)[C@H]2S(=O)(=O)c1cc(C(=O)Nc2cc(F)c(F)c(F)c2)ccc1Cl [Example 280] | > 25 µM | 0.1 to 0.4 µM | – |
| O=C(Nc1cc(F)c(F)c(F)c1)c1ccc(Cl)c(S(=O)(=O)[C@H]2CC3CCC(C2)[C@]3(O)Cc2nnn[nH]2)c1 [Example 276] | > 25 µM | > 0.4 µM | – |
| CN(C)C[C@]1(O)CC2CC[C@@H](C1)[C@H]2S(=O)(=O)c1cc(C(=O)Nc2cc(F)c(F)c(F)c2)ccc1Cl [Example 154] | < 10 µM | < 0.1 µM | – |
| N#CC[C@]1(O)CC2CC[C@@H](C1)[C@H]2S(=O)(=O)c1cc(C(=O)Nc2cc(F)c(F)c(F)c2)ccc1Cl [Example 291] | 10 to 25 µM | < 0.1 µM | – |
| COC(=O)N[C@H](C(=O)NC[C@@]1(O)CC2CC[C@@H](C1)[C@H]2S(=O)(=O)c1cc(C(=O)Nc2cc(F)c(F)c(F)c2)ccc1Cl)C(C)C [Example 288] | 10 to 25 µM | 0.1 to 0.4 µM | – |
| CC[C@]1(O)C2CCC1C[C@@H](S(=O)(=O)c1cc(C(=O)Nc3cc(F)c(F)c(F)c3)ccc1Cl)C2 [Example 252] | – | < 0.1 µM | > 6.25 µM |
| [N-]=[N+]=NC[C@@H]1CC2CC[C@@H](C1)[C@H]2S(=O)(=O)c1cc(C(=O)Nc2cc(F)c(F)c(F)c2)ccc1Cl [Example 304] | – | 0.1 to 0.4 µM | > 6.25 µM |
| O=C(Nc1cc(F)c(F)c(F)c1)c1ccc(Cl)c(S(=O)(=O)[C@H]2CC3CCC(C2)[C@@]3(O)c2nccs2)c1 [Example 301] | 10 to 25 µM | > 0.4 µM | – |
| CS(=O)(=O)NC1CC2CC[C@@H](C1)[C@H]2S(=O)(=O)c1cc(C(=O)Nc2cc(F)c(F)c(F)c2)ccc1Cl (stereo partly shown) [Example 299] | > 25 µM | < 0.1 µM | – |
| O=C(Nc1cc(F)c(F)c(F)c1)c1ccc(Cl)c(S(=O)(=O)[C@]2(F)CC[C@H](O)CC2)c1 [Example 8] | 10 to 25 µM | 0.1 to 0.4 µM | – |
| O=C(Nc1cc(F)c(F)c(F)c1)c1ccc(Cl)c(S(=O)(=O)[C@H]2C3CC[C@H]2C[C@@](O)(CNS(=O)(=O)C2CC2)C3)c1 [Example 279] | > 25 µM | 0.1 to 0.4 µM | – |
| O=C(Nc1cc(F)c(F)c(F)c1)c1ccc(Cl)c(S(=O)(=O)[C@H]2CC3CCC(C2)[C@]3(O)Cn2cccn2)c1 [Example 256] | – | < 0.1 µM | > 12.5 µM |
| [N-]=[N+]=NC[C@]1(O)CC2CC[C@@H](C1)[C@H]2S(=O)(=O)c1cc(C(=O)Nc2cc(F)c(F)c(F)c2)ccc1Cl [Example 286] | 10 to 25 µM | < 0.1 µM | – |
| O=C(Nc1cc(F)c(F)c(F)c1)c1ccc(Cl)c(S(=O)(=O)[C@H]2C3CC[C@H]2C[C@](O)(Cn2cccn2)C3)c1 [Example 313] | – | < 0.1 µM | > 6.25 µM |
| CS(=O)(=O)N[C@@H]1C2CC[C@H]1C[C@H](S(=O)(=O)c1cc(C(=O)Nc3cc(F)c(F)c(F)c3)ccc1Cl)C2 [Example 310] | > 25 µM | < 0.1 µM | – |
| COC(=O)N[C@H]1C2CCC1C[C@@H](S(=O)(=O)c1cc(C(=O)Nc3cc(F)c(F)c(F)c3)ccc1Cl)C2 [Example 309] | > 25 µM | < 0.1 µM | – |
| C=C[C@]1(O)CC2CC[C@@H](C1)[C@H]2S(=O)(=O)c1cc(C(=O)Nc2cc(F)c(F)c(F)c2)ccc1Cl [Example 267] | > 25 µM | < 0.1 µM | – |
